Values after ≈ are worked out from the molar mass of the structure shown. Active and inactive are the calls of the source. The rule behind the calls is not given here.
What was measured:
[1] = tested on: Mycobacterium tuberculosis; assay: Antimicrobial activity against Mycobacterium tuberculosis H37Rv ATTC 27294 by alamar blue assay; type: functional
[2] = tested on: KB; assay: Cytotoxicity against human KB cells; type: functional; settings: read-out: ED50 (the source's name)
[3] = tested on: HCT-15; assay: Cytotoxicity against human HCT15 cells; type: functional; settings: read-out: ED50 (the source's name)
[4] = Cytotoxicity against human UISO-SQC-1 cells; type: functional; settings: UISO-SQC1, read-out: ED50 (the source's name)
[5] = tested on: OVCAR-5; assay: Cytotoxicity against human OVCAR5 cells; type: functional; settings: read-out: ED50 (the source's name)
[6] = tested on: Mus musculus; assay: Anticonvulsant activity in mouse assessed as effect on pentobarbital-induced increase in hypnosis latency at 10 mg/kg, ip; type: functional, organism-based; set-up: dose 10 mg/kg
[7] = tested on: Mus musculus; assay: Anticonvulsant activity in mouse assessed as protection of pentylenetetrazole-induced seizure at 40 mg/kg, ip; type: functional; settings: route intraperitoneal
[8] = species: Mus musculus; assay: Increase in GABA level in mouse brain at 4 ug/mL after 90 seconds; type: functional, organism-based

Compound | MIC [1] [µg/mL] | EC50 [2] [µg/mL] | EC50 [3] [µg/mL] | EC50 [4] [µg/mL] | EC50 [5] [µg/mL] | Activity [6] | Activity [7] [%] | Activity [8]
CCCCCC1CCCCCCCCCC(=O)O[C@H]2[C@@H](OC(=O)CC)[C@H](O[C@H]3[C@H](O[C@H]4[C@H](O1)O[C@H](C)[C@H](O)[C@H]4O)O[C@H](CO)[C@H](O)[C@H]3O)O[C@H](C)[C@H]2O[C@H]1O[C@H](C)[C@H](O)[C@@H](O)[C@H]1O (stereo not given in full) [TYRIANTHIN 9] | 25 (≈ 27.4 µM) | 2.5 (≈ 2.74 µM) | > 5 | > 5 | > 5 | Active | 70 | Active
CCCCC[C@H](CCCCCCCCCC(=O)O)O[C@@H]1O[C@H](C)[C@@H](O)[C@H](O)[C@H]1O[C@@H]1O[C@H](CO)[C@@H](O)[C@H](O)[C@H]1O[C@@H]1O[C@@H](C)[C@H](O[C@@H]2O[C@H](C)[C@@H](OC(=O)C(C)C(C)O)[C@H](O)[C@H]2O)[C@@H](O)[C@H]1OC(=O)C(C)CC (stereo not given in full) [THYRIANTHINIC ACID I] | 25 (≈ 23.6 µM) | 2.6 (≈ 2.46 µM) | > 5 | > 5 | > 5 | Active | 70 | –
C/C=C(\C)C(=O)O[C@H]1[C@@H]2O[C@H]3[C@H](O[C@H]4[C@H](OC(CCCCC)CCCCCCCCCC(=O)O[C@@H]1[C@H](O[C@H]1O[C@H](C)[C@H](O)[C@@H](O)[C@H]1O)[C@@H](C)O2)O[C@H](C)[C@H](O)[C@H]4O)O[C@H](CO)[C@H](O)[C@H]3O (stereo not given in full) [TYRIANTHIN 8] | 25 (≈ 26.7 µM) | 2.2 (≈ 2.35 µM) | > 5 | > 5 | > 5 | Active | 70 | Active
C/C=C(\C)C(=O)O[C@H]1[C@H](O)[C@@H](O)[C@H](O[C@@H]2[C@@H](O)[C@@H](OC(=O)C(C)CC)[C@H](O[C@H]3[C@H](O[C@H]4[C@H](O[C@H](CCCCC)CCCCCCCCCC(=O)O)O[C@H](C)[C@@H](O)[C@@H]4O)O[C@H](CO)[C@@H](O)[C@@H]3O)O[C@H]2C)O[C@@H]1C (stereo not given in full) [THYRIANTHINIC ACID II] | 25 (≈ 24.1 µM) | 2.8 (≈ 2.69 µM) | > 5 | > 5 | > 5 | Active | 70 | –

From ChEMBL document CHEMBL1140181, “Tyrianthinic acids from Ipomoea tyrianthina and their antimycobacterial activity, cytotoxicity, and effects on the central nervous system” (2008)
